Laboratory results taken from ChEMBL document CHEMBL1201862, “PubChem BioAssay data set” (2004).
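Cells were grown in 96-well plates and exposed to each compound for 48 hours at five concentrations; endpoints were interpolated linearly between bracketing concentrations, or set to the highest concentration if not reached. Abbreviation: GI50, concentration required for 50% inhibition of growth.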 Calls of active or inactive are those of the source. Cut-off read from the data, not from the text of the source: active = GI50 up to about 1.1 µM and inactive = higher.

Experiments:
Test in all cases: NCI anticancer screen, dose series, 48 h
[1] = tested on: HL-60
[2] = tested on: NCI-H226
[3] = tested on: SK-MEL-5
[4] = tested on: 786-0
[5] = tested on: HOP-62
[6] = tested on: HT-29
[7] = tested on: SF-295
[8] = tested on: SNB-75
[9] = tested on: CCRF-CEM
[10] = tested on: UO-31
[11] = tested on: NCI-H23
[12] = tested on: LOX IMVI
[13] = tested on: UACC-62
[14] = tested on: TK-10
[15] = tested on: NCI-H460
[16] = tested on: SR
[17] = tested on: MDA-MB-231
[18] = tested on: MDA-MB-435
[19] = tested on: NCI/ADR-RES
[20] = tested on: Hs-578T

Row | SMILES | GI50 [1] | GI50 [2] | GI50 [3] | GI50 [4] | GI50 [5] | GI50 [6] | GI50 [7] | GI50 [8] | GI50 [9] | GI50 [10] | GI50 [11] | GI50 [12] | GI50 [13] | GI50 [14] | GI50 [15] | GI50 [16] | GI50 [17] | GI50 [18] | GI50 [19] | GI50 [20]
1 | CN(C)C(=N)NC(=S)N(C)C | > 100 µM (inactive) | 17.2 µM (inactive) | > 100 µM (inactive) | > 100 µM (inactive) | > 100 µM (inactive) | > 100 µM (inactive) | > 100 µM (inactive) | > 100 µM (inactive) | > 100 µM (inactive) | > 100 µM (inactive) | > 100 µM (inactive) | > 100 µM (inactive) | > 100 µM (inactive) | > 100 µM (inactive) | > 100 µM (inactive) | > 100 µM (inactive) |  |  |  | 
2 | COc1ccc(Cc2nc3cc([N+](=O)[O-])ccc3n2C[C@@H]2CCCN3CCCCC23)cc1 (stereo not given in full) | 4.01 µM (inactive) | 31.6 µM (inactive) | 14.8 µM (inactive) | 18.6 µM (inactive) | 19.3 µM (inactive) | 17 µM (inactive) | 18 µM (inactive) | 40.7 µM (inactive) | 11.2 µM (inactive) | 8.3 µM (inactive) | 29.8 µM (inactive) | 16.7 µM (inactive) | 17.3 µM (inactive) | 25.2 µM (inactive) | 28.2 µM (inactive) |  | 19.3 µM (inactive) | 18.6 µM (inactive) | 25.2 µM (inactive) | 
3 | COC(=O)C(/C(=N\O)C(=O)Nc1cccc(Cl)c1C)c1cnc2ccccc2n1 (stereo not given) |  | > 100 µM (inactive) | > 100 µM (inactive) | > 100 µM (inactive) | > 100 µM (inactive) | > 100 µM (inactive) | > 100 µM (inactive) | > 100 µM (inactive) | > 100 µM (inactive) | > 100 µM (inactive) | > 100 µM (inactive) | > 100 µM (inactive) | > 100 µM (inactive) | > 100 µM (inactive) | > 100 µM (inactive) | > 100 µM (inactive) | > 100 µM (inactive) | > 100 µM (inactive) | > 100 µM (inactive) | 
4 | O=C(CC(C(=O)c1cccs1)c1ccccc1)c1ccccc1O (stereo not given) |  | > 57.7 µM (inactive) | 9.48 µM (inactive) | 9.91 µM (inactive) | 18.2 µM (inactive) | 11.9 µM (inactive) | 8.67 µM (inactive) | > 20.6 µM (inactive) | 2.55 µM (inactive) | 18.5 µM (inactive) | > 42.6 µM (inactive) | 12.4 µM (inactive) | 14.7 µM (inactive) | > 41.1 µM (inactive) | 48.1 µM (inactive) | 9.27 µM (inactive) |  | 3.1 µM (inactive) | 6.01 µM (inactive) | 5.81 µM (inactive)
5 | N#COc1ccc(Oc2ccc(OC#N)cc2)cc1 | 46.3 µM (inactive) | > 100 µM (inactive) | > 100 µM (inactive) | 39.1 µM (inactive) | > 100 µM (inactive) | 70.6 µM (inactive) | 98.4 µM (inactive) | 93.5 µM (inactive) | 22.5 µM (inactive) | 89.7 µM (inactive) | 70.5 µM (inactive) | 19.3 µM (inactive) | 47.1 µM (inactive) | > 100 µM (inactive) | 28.2 µM (inactive) | 24.1 µM (inactive) |  |  |  | 
6 | O=S1(=O)C[C@@H](O)[C@H](O)CS1 | > 100 µM (inactive) | > 100 µM (inactive) | > 100 µM (inactive) | > 100 µM (inactive) | > 100 µM (inactive) | > 100 µM (inactive) | > 100 µM (inactive) | > 100 µM (inactive) |  | > 100 µM (inactive) | > 100 µM (inactive) | > 100 µM (inactive) | > 100 µM (inactive) | > 100 µM (inactive) | > 100 µM (inactive) | > 100 µM (inactive) |  |  |  | 
7 | O=C1N[C@@H]2C(=C[C@H](O)[C@@H](O)[C@H]2O)c2cc3c(c(O)c21)OCO3 [NARCICLASINE] | 0.0646 µM (active) | 0.045 µM (active) | 0.045 µM (active) |  | 0.045 µM (active) | 0.045 µM (active) | 0.0634 µM (active) | 0.045 µM (active) | 0.045 µM (active) | 0.045 µM (active) | 0.045 µM (active) | 0.045 µM (active) | 0.045 µM (active) |  | 0.045 µM (active) |  |  |  | 0.045 µM (active) | 
8 | Oc1ccc(/C=C/c2cc(O)cc(O)c2)cc1 [RESVERATROL] | 20.4 µM (inactive) | 39.9 µM (inactive) |  |  | 92 µM (inactive) | 24.3 µM (inactive) | 44 µM (inactive) | 95.1 µM (inactive) |  | 35.7 µM (inactive) | 46 µM (inactive) |  | 41.2 µM (inactive) | > 100 µM (inactive) | 42.1 µM (inactive) | 53.1 µM (inactive) | > 100 µM (inactive) | 70.1 µM (inactive) | 19.6 µM (inactive) | 
